The source of these data is patent US12466822B2, “Heterocyclic compounds as immunomodulators” (Incyte Corporation, priority 2016, dated 2025).

pIC50: −log10 of the molar value. Some results are limits rather than exact numbers.

The target in this experiment is T1, PD-1/PD-L1 protein/protein interaction (recombinant human PD-L1 protein (19-238), recombinant human PD-1 protein (25-167)) (Homo sapiens, UniProt Q9NZQ7).
T1 construct: Recombinant human PD-L1 protein (19-238) with a His-tag at the C-terminus; purchased AcroBiosystems PD1-H5229 (PD-L1-His); PD1-H5257 (PD-1-Fc)
T1 sequence (Q9NZQ7 19-238): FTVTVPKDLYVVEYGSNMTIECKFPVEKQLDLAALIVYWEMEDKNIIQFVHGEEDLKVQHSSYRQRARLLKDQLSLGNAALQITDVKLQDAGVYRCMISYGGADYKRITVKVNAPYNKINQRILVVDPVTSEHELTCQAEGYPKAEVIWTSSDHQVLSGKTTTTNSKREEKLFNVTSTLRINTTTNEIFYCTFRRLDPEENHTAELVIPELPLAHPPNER
As to the kind of experiment: PD-1/PD-L1 Homogeneous Time-Resolved Fluorescence (HTRF) Binding Assay. The following applies: 25° C., PBS buffer (pH 7.4), 40 minutes preincubation with inhibitors. In a few lines:
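HTRF read-out (665/620 nm) after 60 min at 25 °C with 1 nM Eu anti-human IgG and 20 nM APC anti-His. Beforehand, inhibitors were preincubated 40 min with Fc-PD-1 (25-167, […] as listed) and His-PD-L1 (19-238, 10 nM) in PBS pH 7.4 with Tween-20, BSA, 1% DMSO; IC50 from log-concentration curve.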
For the molecule `Cc1c(Nc2nccc3cc(CN4CCCC4)cnc23)cccc1-c1cccc(Nc2nccc3cc(CN4CC[C@@H](O)C4)cnc23)c1C` [Example 73, (R)-1-((8-((2,2′-dimethyl-3′-((3-(pyrrolidin-1-ylmethyl)-1,7-naphthyridin-8-yl)amino)-[1,1′-biphenyl]-3-yl)amino)-1,7-naphthyridin-3-yl)methyl)pyrrolidin-3-ol], the pIC50 (usually −log10 of the IC50, conventionally taken in molar units) is at least 8.00.
With `Cc1c(Nc2nccc3cc(CN4CC[C@H](O)C4)cnc23)cccc1-c1cccc(Nc2nccc3cc(CN4CC[C@@H](O)C4)cnc23)c1Cl` [Example 74, (S)-1-((8-((2′-chloro-3′-((3-(((R)-3-hydroxypyrrolidin-1-yl)methyl)-1,7-naphthyridin-8-yl)amino)-2-methyl-[1,1′-biphenyl]-3-yl)amino)-1,7-naphthyridin-3-yl)methyl)pyrrolidin-3-ol] the figure was at least 8.00; with `Cc1c(Nc2nccc3cc(CN4CC(C(=O)O)C4)cnc23)cccc1-c1cccc(Nc2nccc3cc(CN4CC[C@@H](O)C4)cnc23)c1Cl` [Example 75, (R)-1-((8-((2′-chloro-3′-((3-((3-hydroxypyrrolidin-1-yl)methyl)-1,7-naphthyridin-8-yl)amino)-2-methyl-[1,1′-biphenyl]-3-yl)amino)-1,7-naphthyridin-3-yl)methyl)azetidine-3-carboxylic acid], at least 8.00.
Under `C[C@@]1(O)CCN(Cc2cnc3c(Nc4cccc(-c5cccc(Nc6nccc7cc(CN8CC[C@@H](O)C8)cnc67)c5Cl)c4Cl)nccc3c2)C1` [Example 76, (R)-1-((8-((2,2′-dichloro-3′-((3-(((R)-3-hydroxypyrrolidin-1-yl)methyl)-1,7-naphthyridin-8-yl)amino)-[1,1′-biphenyl]-3-yl)amino)-1,7-naphthyridin-3-yl)methyl)-3-methylpyrrolidin-3-ol] stands at least 8.00.
Take `OCCNCc1cnc2c(Nc3cccc(-c4cccc(Nc5nccc6cc(CN7CC[C@@H](O)C7)cnc56)c4Cl)c3Cl)nccc2c1` [Example 77, (R)-1-((8-((2,2′-dichloro-3′-((3-(((2-hydroxyethyl)amino)methyl)-1,7-naphthyridin-8-yl)amino)-[1,1′-biphenyl]-3-yl)amino)-1,7-naphthyridin-3-yl)methyl)pyrrolidin-3-ol]: the pIC50 is at least 8.00.
With `O=C(O)[C@@H]1CCN(Cc2cnc3c(Nc4cccc(-c5cccc(Nc6nccc7cc(CN8CC[C@@H](O)C8)cnc67)c5Cl)c4Cl)nccc3c2)C1` [Example 78, (R)-1-((8-((2,2′-dichloro-3′-((3-(((R)-3-hydroxypyrrolidin-1-yl)methyl)-1,7-naphthyridin-8-yl)amino)-[1,1′-biphenyl]-3-yl)amino)-1,7-naphthyridin-3-yl)methyl)pyrrolidine-3-carboxylic acid] the figure was at least 8.00; with `Cc1c(Nc2nccc3cc(CN4CC[C@@H](O)C4)cnc23)cccc1-c1cccc(Nc2nccc3cc(CN4CC[C@@H](C(=O)O)C4)cnc23)c1Cl` [Example 79, (R)-1-((8-((2-chloro-3′-((3-(((R)-3-hydroxypyrrolidin-1-yl)methyl)-1,7-naphthyridin-8-yl)amino)-2′-methyl-[1,1′-biphenyl]-3-yl)amino)-1,7-naphthyridin-3-yl)methyl)pyrrolidine-3-carboxylic acid], at least 8.00; with `Cc1c(Nc2nccc3cc(CN4CC[C@@H](O)C4)cnc23)cccc1-c1cccc(Nc2nccc3cc(CN4CC(C(=O)O)C4)cnc23)c1Cl` [Example 80, (R)-1-((8-((2-chloro-3′-((3-((3-hydroxypyrrolidin-1-yl)methyl)-1,7-naphthyridin-8-yl)amino)-2′-methyl-[1,1′-biphenyl]-3-yl)amino)-1,7-naphthyridin-3-yl)methyl)azetidine-3-carboxylic acid], at least 8.00.
Turning to `Cc1c(Nc2nccc3cc(CN4CC[C@@H](O)C4)cnc23)cccc1-c1cccc(Nc2nccc3cc(CNCCC(=O)O)cnc23)c1Cl` [Example 81, (R)-3-(((8-((2-chloro-3′-((3-((3-hydroxypyrrolidin-1-yl)methyl)-1,7-naphthyridin-8-yl)amino)-2′-methyl-[1,1′-biphenyl]-3-yl)amino)-1,7-naphthyridin-3-yl)methyl)amino)propanoic acid], the pIC50 was at least 8.00.
As for `O=C(O)[C@@H]1CCN(Cc2cnc3c(Nc4cccc(-c5cccc(Nc6nccc7cc(CN8CC[C@H](O)C8)cnc67)c5Cl)c4Cl)nccc3c2)C1` [Example 82, (R)-1-((8-((2,2′-dichloro-3′-((3-(((S)-3-hydroxypyrrolidin-1-yl)methyl)-1,7-naphthyridin-8-yl)amino)-[1,1′-biphenyl]-3-yl)amino)-1,7-naphthyridin-3-yl)methyl)pyrrolidine-3-carboxylic acid], the pIC50 is at least 8.00.
As to `O=C(O)[C@H]1CCN(Cc2cnc3c(Nc4cccc(-c5cccc(Nc6nccc7cc(CN8CC[C@H](O)C8)cnc67)c5Cl)c4Cl)nccc3c2)C1` [Example 83, (S)-1-((8-((2,2′-dichloro-3′-((3-(((S)-3-hydroxypyrrolidin-1-yl)methyl)-1,7-naphthyridin-8-yl)amino)-[1,1′-biphenyl]-3-yl)amino)-1,7-naphthyridin-3-yl)methyl)pyrrolidine-3-carboxylic acid], the pIC50 was at least 8.00.
Under `Cc1c(Nc2nccc3cc(CN4CC[C@@H](C(=O)O)C4)cnc23)cccc1-c1cccc(-c2nc3c(o2)CN(C(=O)CN(C)C)C3)c1C` [Example 84, (R)-1-((8-((3′-(5-(dimethylglycyl)-5,6-dihydro-4H-pyrrolo[3,4-d]oxazol-2-yl)-2,2′-dimethyl-[1,1′-biphenyl]-3-yl)amino)-1,7-naphthyridin-3-yl)methyl)pyrrolidine-3-carboxylic acid] stands at least 8.00; under `Cc1c(Nc2nccc3cc(CN4CC[C@@H](C(=O)O)C4)cnc23)cccc1-c1cccc(-c2nc3c(s2)CN(C(=O)CN(C)C)C3)c1C` [Example 85, (R)-1-((8-((3′-(5-(dimethylglycyl)-5,6-dihydro-4H-pyrrolo[3,4-d]thiazol-2-yl)-2,2′-dimethyl-[1,1′-biphenyl]-3-yl)amino)-1,7-naphthyridin-3-yl)methyl)pyrrolidine-3-carboxylic acid], at least 8.00.
With `Cc1c(Nc2nccc3cc(CN4CC[C@@H](O)C4)cnc23)cccc1-c1cccc(-c2nc3c(s2)CN(C(=O)CN2CC[C@@H](O)C2)C3)c1C` [Example 86, 2-((R)-3-hydroxypyrrolidin-1-yl)-1-(2-(3′-((3-(((R)-3-hydroxypyrrolidin-1-yl)methyl)-1,7-naphthyridin-8-yl)amino)-2,2′-dimethyl-[1,1′-biphenyl]-3-yl)-4,6-dihydro-5H-pyrrolo[3,4-d]thiazol-5-yl)ethan-1-one] the figure was at least 8.00.
Turning to `Cc1c(Nc2nccc3cc(CN4CC[C@@](C)(C(=O)O)C4)cnc23)cccc1-c1cccc(-c2nc3c(s2)CN(C(=O)CN(C)C)C3)c1C` [Example 87, (R)-1-((8-((3′-(5-(dimethylglycyl)-5,6-dihydro-4H-pyrrolo[3,4-d]thiazol-2-yl)-2,2′-dimethyl-[1,1′-biphenyl]-3-yl)amino)-1,7-naphthyridin-3-yl)methyl)-3-methylpyrrolidine-3-carboxylic acid], the pIC50 was at least 8.00.
